From patent publication US10052346B2, “Treatment of myelodysplastic syndromes with 2-O and,or 3-O desulfated heparinoids” (Cantex Pharmaceuticals, Inc., priority 2015, dated 2018)
“Also recorded” adds a separate entry of the source. Values belong to the substance of their own block, whether it stands above or below them.

Tests used:
[1] = test system: advanced pancreatic cancer; conditions: dalteparin added to gemcitabine; cited from earlier work
ovarian cancer = conditions: with standard chemotherapy regimen; cited from earlier work
[2] = test system: advanced prostate, lung, or pancreatic cancer; conditions: added to existing standard of care protocols; cited from earlier work
[3] = clotting time in an aPTT assay after administration to a subject; format: in vivo; conditions: ODSH at a dose equivalent in weight to a fully-anticoagulating dose of unfractionated heparin; UFH at fully anticoagulant dose; normal about 27 to 35 seconds
From the text: In contrast to unfractionated heparin, ODSH is substantially non-anticoagulating: administered to a subject at a dose that is equivalent in weight to a fully-anticoagulating dose of unfractionated heparin, the clotting time measured in an aPTT assay is no greater than 45 seconds, and typically in the upper range of normal, where normal clotting time ranges from about 27 to 35 seconds. By comparison, unfractionated heparin administered to a subject at a fully anticoagulant dose causes time to clot to range from about 60 to about 85 seconds in an aPTT assay.

anti-thrombin III = anti-thrombin III (Homo sapiens, UniProt P01008); test: affinity for anti-thrombin III; format: binding; conditions: for Kd: measured as described in Rao et al.; for Kd for anti-thrombin III: same Kd as mass concentration
Sequence of anti-thrombin III (P01008 33-464, species assumed): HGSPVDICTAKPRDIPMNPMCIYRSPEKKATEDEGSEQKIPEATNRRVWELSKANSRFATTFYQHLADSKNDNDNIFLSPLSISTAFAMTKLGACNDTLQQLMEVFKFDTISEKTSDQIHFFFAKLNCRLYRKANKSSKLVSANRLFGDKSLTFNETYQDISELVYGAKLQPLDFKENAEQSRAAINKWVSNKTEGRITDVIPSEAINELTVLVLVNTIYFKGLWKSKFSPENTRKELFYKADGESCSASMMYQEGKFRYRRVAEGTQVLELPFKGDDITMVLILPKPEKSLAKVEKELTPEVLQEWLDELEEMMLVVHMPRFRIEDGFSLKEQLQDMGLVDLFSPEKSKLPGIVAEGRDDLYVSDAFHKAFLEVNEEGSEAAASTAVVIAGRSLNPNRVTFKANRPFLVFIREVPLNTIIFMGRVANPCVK

[4] = test system: acute myeloid leukemia (AML); test: single arm open-label clinical study of ODSH with idarubicin + cytarabine induction (NCT02056782); format: in vivo, human
Procedure: A single arm open-label clinical study was conducted at multiple trial sites (University of Utah, Georgia Regents University, and Medical University of South Carolina) in patients with newly diagnosed acute myeloid leukemia (AML) to confirm that ODSH could accelerate platelet and white blood cell (WBC) recovery in patients receiving induction chemotherapy with a regimen known to have myelosuppressive side effects.
All patients received the following standard (“7+3”) induction regimen, • Idarubicin (12 mg/m^2/day) by short intravenous infusion on Days 1, 2, and 3; and • Cytarabine (100 mg/m^2) as a continuous intravenous infusion over 24 hours (Days 1 through 7).
All patients also received CX-01, a substantially 2-O, 3-O-desulfated heparin derivative (ODSH) as an intravenous bolus immediately after the idarubicin dose on Day 1, at a dose of 4 mg/kg, followed by a continuous intravenous infusion at a dose of 0.25 mg/kg/hr for a total of 7 days (Days 1 through 7).
Twelve patients were enrolled. The median age was 56 (range 22-74). Based on cytogenetic, molecular, or antecedent hematologic disorder, 9 of 12 patients fell into the intermediate or poor risk categories. […] Complete remission at the end of the induction cycle was assessed using International Working Group (IWG) criteria (see, e.g., Cheson et al., J. Clin. Oncol. 21:4642 (2003)).
Platelet, neutrophil, and WBC recovery of the ODSH-treated AML patients was compared with the recovery in historical control patients receiving identical doses of idarubicin and cytarabine as induction therapy in a previous clinical study comparing idarubicin and daunorubicin in combination with cytarabine (Vogler et al., J. Clin. Oncol. 10(7):1103-11(1992)). In the previous study, 101 patients received idarubicin 12 mg/m^2 on days 1, 2, and 3 and cytarabine 100 mg/m^2 on days 1-7. Growth factors were not administered to any patient.

bone marrow = test: serial bone marrow biopsies in the AML trial; format: in vivo, human; conditions: one patient treated with ODSH, cytarabine and idarubicin; for bone marrow biopsy appearance at Day 14 of the induction cycle: FIG. 2B; for bone marrow biopsy appearance at Day 28: FIG. 2C
From the text: Bone marrow biopsies were obtained in the AML, trial described in Example 1.
FIGS. 2A-2C are photomicrographs of biopsies from one of the patients.

[5] = stability testing of CX-01 infusion solutions; format: physicochemical; conditions: room temperature; diluted in 0.9% sodium chloride
Procedure: Based upon current stability testing data, CX-01 infusion solutions expire at room temperature 72 hours after preparation and should be stored in a refrigerator (2 to 8° C.) until used.

[6] = test system: metastatic adenocarcinoma of the pancreas; conditions: cited from earlier work
human pancreatic cancer = conditions: regimen that includes gemcitabine; cited from earlier work
[7] = comparator heparin; Rao et al.; cited from earlier work
Xa = target: T1, Xa (Homo sapiens, UniProt P00742); conditions: comparator heparin; Rao et al.; cited from earlier work
T1 construct: an assay carried out using plasma treated with Russell viper venom; from tissue; host or cells: plasma
T1 sequence (P01008 33-464 partner): as the sequence (P01008 33-464, species assumed) above
T1 sequence (P00742 235-488 limits assumed): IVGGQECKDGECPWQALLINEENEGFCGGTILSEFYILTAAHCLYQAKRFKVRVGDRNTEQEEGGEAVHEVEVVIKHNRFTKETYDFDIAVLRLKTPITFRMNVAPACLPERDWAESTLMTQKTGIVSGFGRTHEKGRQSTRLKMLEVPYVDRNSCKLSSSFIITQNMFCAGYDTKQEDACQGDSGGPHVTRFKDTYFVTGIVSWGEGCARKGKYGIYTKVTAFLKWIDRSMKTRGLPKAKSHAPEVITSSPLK

IIa = IIa (Homo sapiens, UniProt P00734+P01008); conditions: comparator heparin; Rao et al.; cited from earlier work
pancreatic cancer model = conditions: in vivo; cited from earlier work
[8] = median follow-up of 14.2 months
[9] = ODSH added to gemcitabine plus nab-paclitaxel

Substance: dalteparin
survival [1]: no statistically significant improvement in survival | outcome (ovarian cancer): could not be shown to improve outcome

Substance: nadroparin
survival benefit [2]: no statistically significant survival benefit

Kd (anti-thrombin III): ~339 µM | Kd for anti-thrombin III (anti-thrombin III): ~4000 µg/mL | expiry of infusion solutions after preparation [5]: 72 h
Substance: substantially 2-O, 3-O desulfated heparin [ODSH]
clotting time measured in an aPTT assay [3]: ≤ 45 s | patients remaining in complete remission ([4]; 5-13 months after having been enrolled in the study): 10 of the 12 | patients with primary AML achieving complete remission at the end of a single induction cycle ([4]; 11 patients with primary AML): 11 | myelosuppressive side effects of the idarubicin+cytarabine regimen ([4]; AML patients): significantly attenuated the myelosuppressive side effects | Complete response with first induction cycle (morphologic complete remission, IWG criteria) ([4]; AML patients, n = 12, 11 out of 12): 92% | median OS [4, 8]: ≥ 13.6 months | median event free survival [4, 8]: 13.5 months | median time to relapse ([4]; six patients who relapsed): 8 months | bone marrow biopsy appearance at Day 14 of the induction cycle (bone marrow): elimination of most normal bone marrow cells as well as leukemia cells | bone marrow biopsy appearance at Day 14 of the induction cycle (bone marrow; listed as CX-01 ODSH): significant depletion of normal bone marrow cells | bone marrow biopsy appearance at Day 28 (bone marrow): no evidence of leukemic cells and restoration of normal bone marrow appearance and function | bone marrow biopsy appearance at Day 28 (bone marrow; listed as CX-01 ODSH): no evidence of leukemia and restoration of normal bone marrow appearance and function | overall survival [6, 9]: did not provide a statistically significant increase; also recorded: no statistically significant benefit | progression-free survival [6, 9]: did not provide a statistically significant increase; also recorded: no statistically significant benefit | myelosuppressive side effects of the gemcitabine plus nab-paclitaxel regimen ([6]; U.S. Pat. No. 8,734,804): attenuate the myelosuppressive side effects | efficacy of chemotherapy regimen in animal model (human pancreatic cancer): improves the efficacy of a chemotherapy regimen; also recorded: sensitize cancer cells to chemotherapy

Substance: unfractionated heparin
Kd (anti-thrombin III): 1.56 µM | Kd for anti-thrombin III (anti-thrombin III): 22 µg/mL | anticoagulant activity in the USP anticoagulant assay [7]: 165-190 U/mg | anti-Xa activity (Xa): 165-190 U/mg | anti-IIa activity (IIa): 165-190 U/mg | potency of gemcitabine (pancreatic cancer model): enhances potency of gemcitabine
